Assay results: PMC12396409, “Screening and hit evaluation of a microbial metabolite library against the pathogenic Plasmodium falciparum and Toxoplasma gondii parasites” (International Journal for Parasitology: Drugs and Drug …, 2025)
Where two headings read alike, the source gives them in different places.

What was measured:
[1] = test system: P. falciparum 3D7 parasites; experiment: P. falciparum growth inhibition assay, 1-cycle (72 h treatment), SYBR DNA staining (library screen at 2 μg/mL and dose-response); format: cell-based, Plasmodium falciparum
[2] = test system: P. falciparum 3D7 parasites; experiment: P. falciparum growth inhibition assay, 2-cycle (120 h treatment), delayed-death screen and dose-response; format: cell-based, Plasmodium falciparum
[3] = test system: T. gondii RH strain (RH-Tub-eYFP) tachyzoites; experiment: microbe, parasite or virus in culture; format: cell-based, Toxoplasma gondii; conditions: 72 h; for percent parasite growth at 2 µg/mL: Toxoplasma gondii
[4] = library screen at 2 μg/mL, 72 h, % growth, replicate 1
[5] = library screen at 2 μg/mL, 72 h, % growth, replicate 2
[6] = library screen at 2 μg/mL, 120 h, % growth, replicate 1
[7] = library screen at 2 μg/mL, 120 h, % growth, replicate 2
[8] = library screen at 2 μg/mL, % growth, replicate 1
[9] = library screen at 2 μg/mL, % growth, replicate 2
[10] = T. gondii, 2 μg/mL, values are growth (% of control)
[11] = Plasmodium falciparum, 3D7, P. falciparum, 72 h, screen at 2 μg/mL, replicate 1, read-out: Pf_72h_%Growth_Rep1
[12] = Plasmodium falciparum, 3D7, P. falciparum, 72 h, screen at 2 μg/mL, replicate 2, read-out: Pf_72h_%Growth_Rep2
[13] = Plasmodium falciparum, 3D7, P. falciparum, 120 h, screen at 2 μg/mL, replicate 1, read-out: Pf_120h_%Growth_Rep1
[14] = Plasmodium falciparum, 3D7, P. falciparum, 120 h, screen at 2 μg/mL, replicate 2, read-out: Pf_120h_%Growth_Rep2
[15] = T. gondii, screen at 2 μg/mL, replicate 1, read-out: Tg_72h_%Growth_Rep1
[16] = T. gondii, screen at 2 μg/mL, replicate 2, read-out: Tg_72h_%Growth_Rep2

O=C1N[C@@H](Cc2ccccc2)C(=O)N[C@H]1Cc1ccccc1 [Cyclo(L-Phe-L-Phe)]
Pf_72h_%Growth_Rep1 ([1]; P. falciparum, 72 h, screen at 2 μg/mL, replicate 1): 87.79%
Pf_72h_%Growth_Rep2 ([1]; P. falciparum, 72 h, screen at 2 μg/mL, replicate 2): 85.43%
Pf_120h_%Growth_Rep1 ([2]; P. falciparum, 120 h, screen at 2 μg/mL, replicate 1): 99.78%
Pf_120h_%Growth_Rep2 ([2]; P. falciparum, 120 h, screen at 2 μg/mL, replicate 2): 97.44%
Tg_72h_%Growth_Rep1 ([3]; T. gondii, screen at 2 μg/mL, replicate 1): 128.27%
Tg_72h_%Growth_Rep2 ([3]; T. gondii, screen at 2 μg/mL, replicate 2): 97.95%

CC(=O)NCCc1c[nH]c2ccc(O)cc12 [Acetylserotonin, N-]
Pf_72h_%Growth_Rep1 [1, 4]: 83.62%
Pf_72h_%Growth_Rep2 [1, 5]: 79.72%
Pf_120h_%Growth_Rep1 [2, 6]: 81.51%
Pf_120h_%Growth_Rep2 [2, 7]: 80.80%
Tg_72h_%Growth_Rep1 [3, 8]: 128.90%
Tg_72h_%Growth_Rep2 [3, 9]: 97.07%

O=C1NC(c2c[nH]c3ccccc23)=C/C1=C1\C(=O)Nc2ccccc21 [Deoxyviolacein]
Pf_72h_%Growth_Rep1 [1, 4]: 4.36%
Pf_72h_%Growth_Rep2 [1, 5]: 20.63%
Pf_120h_%Growth_Rep1 [2, 6]: 11.68%
Pf_120h_%Growth_Rep2 [2, 7]: 9.06%
Mean ([3]; T. gondii, 2 μg/mL, mean of both replicates, growth (% of control)): 20.63
Replicate 1 [3, 10]: 14.71
Replicate 2 [3, 10]: 26.55
Tg_72h_%Growth_Rep1 [3, 8]: 14.71%
Tg_72h_%Growth_Rep2 [3, 9]: 26.55%

CCCCCCCCCCCCCCCCCC(=O)N[C@H]1CCOC1=O [BIA-O1501]
Pf_72h_%Growth_Rep1 ([1]; P. falciparum 3D7, 72 h, parasite screen at 2 μg/mL, % growth, replicate 1): 84.33%
Pf_72h_%Growth_Rep2 ([1]; P. falciparum 3D7, 72 h, parasite screen at 2 μg/mL, % growth, replicate 2): 54.35%
Pf_120h_%Growth_Rep1 ([2]; P. falciparum 3D7, 120 h, parasite screen at 2 μg/mL, % growth, replicate 1): 92.72%
Pf_120h_%Growth_Rep2 ([2]; P. falciparum 3D7, 120 h, parasite screen at 2 μg/mL, % growth, replicate 2): 140.11%
Tg_72h_%Growth_Rep1 ([3]; T. gondii, parasite screen at 2 μg/mL, % growth, replicate 1): 147.08%
Tg_72h_%Growth_Rep2 ([3]; T. gondii, parasite screen at 2 μg/mL, % growth, replicate 2): 83.28%

CC[C@H]1OC(=O)C[C@@H](O)[C@H](C)[C@@H](O[C@@H]2O[C@H](C)[C@@H](O)[C@H](N(C)C)[C@H]2O)[C@@H](CCN2C[C@H](C)C[C@H](C)C2)C[C@@H](C)C(=O)/C=C/C(C)=C/[C@@H]1CO[C@@H]1O[C@H](C)[C@@H](O)[C@@H](OC)[C@H]1OC [Tilmicosin, reference compound]
activity at 2 µg/mL ([1]; Plasmodium falciparum, 3D7; P. falciparum, 2 μg/mL, 72 h; read-out: 1) Growth (%) at 72 h): 43.1%
activity at 2 µg/mL [1, 11]: 45%
activity at 2 µg/mL [1, 12]: 41.2%
3) Fold change (72 h/120 h) ([2]; P. falciparum, growth at 72 h / growth at 120 h, 2 μg/mL): 3.0
activity at 2 µg/mL ([2]; Plasmodium falciparum, 3D7; P. falciparum, 2 μg/mL, 120 h; read-out: 2) Growth (%) at 120 h): 14.5%
activity at 2 µg/mL [2, 13]: 22.4%
activity at 2 µg/mL [2, 14]: 6.63%
percent parasite growth at 2 µg/mL [3, 15]: 48.2%
percent parasite growth at 2 µg/mL [3, 16]: 37.2%

C/C=C/C1=CC(=O)[C@@H](O)[C@@H]1O [Terrein]
activity at 2 µg/mL [1, 11]: 77.7%
activity at 2 µg/mL [1, 12]: 91.3%
activity at 2 µg/mL [2, 13]: 82%
activity at 2 µg/mL [2, 14]: 46.1%
percent parasite growth at 2 µg/mL [3, 15]: 125%
percent parasite growth at 2 µg/mL [3, 16]: 83.6%

C=C1C(=O)O[C@H]2C(=O)O[C@H](CCCCCCCC)[C@@H]12 [Avenaciolide]
Pf_72h_%Growth_Rep1 [1, 4]: 79.34%
Pf_72h_%Growth_Rep2 [1, 5]: 78.44%
Pf_120h_%Growth_Rep1 [2, 6]: 53.72%
Pf_120h_%Growth_Rep2 [2, 7]: 80.39%
Tg_72h_%Growth_Rep1 [3, 8]: 102.05%
Tg_72h_%Growth_Rep2 [3, 9]: 95.83%

COc1cc(O)c2c(c1C)C(C)C(O)(CO)OC2=O (stereo not drawn) [Banksialactone A]
Pf_72h_%Growth_Rep1 [1, 4]: 70.20%
Pf_72h_%Growth_Rep2 [1, 5]: 86.53%
Pf_120h_%Growth_Rep1 [2, 6]: 148.50%
Pf_120h_%Growth_Rep2 [2, 7]: 82.39%
Tg_72h_%Growth_Rep1 [3, 8]: 101.56%
Tg_72h_%Growth_Rep2 [3, 9]: 97.07%

C=C(NC(=O)C(=C)NC(=O)c1ccc2c(n1)-c1coc(n1)C(=C)NC(=O)C(=C)NC(=O)c1nc(oc1C)C(=C)NC(=O)[C@H](C(C)(C)O)NC(=O)C(=C)NC(=O)c1nc(oc1C)/C(=C/C)NC(=O)[C@H]([C@@H](C)O)NC(=O)c1csc-2n1)C(N)=O [Berninamycin A]
Pf_72h_%Growth_Rep1 [1, 4]: 102.47%
Pf_72h_%Growth_Rep2 [1, 5]: 88.00%
Pf_120h_%Growth_Rep1 [2, 6]: 140.98%
Pf_120h_%Growth_Rep2 [2, 7]: 104.87%
Tg_72h_%Growth_Rep1 [3, 8]: 80.20%
Tg_72h_%Growth_Rep2 [3, 9]: 95.18%
